Source: ChEMBL document CHEMBL1201862, “PubChem BioAssay data set” (2004)
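Each compound was tested at five concentrations against cells in 96-well plates for 48 hours. At the GI50, growth is halved.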 The source made the active and inactive calls. No stated cut-off is given here; in the data, active = GI50 up to about 1.1 µM and inactive = higher.

Legend:
Assay in all cases: NCI tumour cell line growth inhibition, 48 h
[1] = test system: COLO 205
[2] = test system: OVCAR-5
[3] = test system: NCI-H460
[4] = test system: NCI-H23
[5] = test system: U-251
[6] = test system: A549
[7] = test system: 786-0
[8] = test system: SK-OV-3
[9] = test system: UACC-62
[10] = test system: SF-295
[11] = test system: HL-60
[12] = test system: HT-29
[13] = test system: SF-268
[14] = test system: SK-MEL-2

Measured: GI50

COC(=O)C(Br)C1CCc2ccccc21 (centres undefined)
inactive: [1] > 100 µM | [2] > 100 µM | [3] > 100 µM | [4] > 100 µM | [5] > 100 µM | [6] > 100 µM | [7] > 100 µM | [8] > 100 µM | [9] > 100 µM | [10] 52.6 µM | [11] 26.5 µM | [12] > 100 µM | [13] > 100 µM

CC(=O)NNc1nc(C)c(C(=O)/C=C/c2ccc(/C=C/C(=O)c3sc(NNC(C)=O)nc3C)cc2)s1
inactive: [1] > 100 µM | [2] > 100 µM | [3] > 100 µM | [4] > 100 µM | [5] > 100 µM | [6] > 100 µM | [7] > 100 µM | [8] > 100 µM | [9] > 100 µM | [10] > 100 µM | [11] > 100 µM | [12] > 100 µM | [13] > 100 µM | [14] > 100 µM

Cc1nnc2c3nnc(C)n3c3ccccc3n12
inactive: [1] > 100 µM | [2] > 100 µM | [3] > 100 µM | [4] > 100 µM | [5] > 100 µM | [6] > 100 µM | [7] > 100 µM | [8] > 100 µM | [9] > 100 µM | [10] > 100 µM | [12] > 100 µM | [13] > 100 µM | [14] > 100 µM

CC(C)C1=CC(=O)C(C)(C2=NC(C)(C)CO2)c2ccccc21 (centres undefined)
inactive: [1] > 100 µM | [3] > 100 µM | [4] > 100 µM | [5] > 100 µM | [6] > 100 µM | [7] > 100 µM | [8] 88.5 µM | [9] > 100 µM | [10] > 100 µM | [11] > 100 µM | [12] > 100 µM | [13] > 100 µM | [14] > 100 µM

CCCP1(=O)C=C(C)C(=C(Cl)Cl)C(C)=C1 (centres undefined)
inactive: [1] 36.1 µM | [2] > 100 µM | [3] 37.4 µM | [4] 34.7 µM | [5] > 100 µM | [6] 33.7 µM | [7] 44.5 µM | [9] 44 µM | [10] 35.2 µM | [11] 21.6 µM | [12] 43 µM | [13] 25.9 µM | [14] 16.3 µM

CCCCCCCCCCCCCC(=O)OCC(C[As](=O)(O)O)OC(=O)CCCCCCCCCCCCC (centres undefined)
inactive: [3] > 100 µM | [4] > 100 µM | [5] 43.9 µM | [6] > 100 µM | [7] > 100 µM | [8] > 100 µM | [9] > 100 µM | [12] > 100 µM | [13] > 100 µM | [14] > 100 µM

COC(=O)C1CCc2nnc(-c3cccnc3)n21 (centres undefined)
inactive: [1] > 100 µM | [3] > 100 µM | [5] > 100 µM | [6] > 100 µM | [7] > 100 µM | [8] > 100 µM | [9] > 100 µM | [11] > 100 µM | [13] > 100 µM | [14] > 100 µM

CC(=O)c1ccccc1NC(=O)C(=O)C(C(=O)c1ccccc1-c1ccccc1)C1OC(=O)c2ccccc21 (centres undefined)
inactive: [1] 23.2 µM | [2] 29.2 µM | [3] 19.1 µM | [4] 16.5 µM | [5] 16 µM | [6] 25.5 µM | [7] 18.6 µM | [8] 31.8 µM | [9] 20.7 µM | [10] 22.2 µM | [11] 23.9 µM | [12] 26.9 µM | [14] 17.2 µM

Clc1ccc(OCc2nnc3n2N=C(c2ccccc2)CS3)c(Cl)c1
inactive: [2] 5.78 µM | [3] 5 µM | [4] 5.66 µM | [5] 4.81 µM | [6] 6.5 µM | [7] 9.48 µM | [8] > 100 µM | [9] 6.58 µM | [10] 4.35 µM | [11] 3.7 µM | [12] 5.74 µM | [13] 8.73 µM | [14] > 100 µM

Brc1ccc(C[P+]2(c3ccccc3)CCCCC2)cc1.[O-][Cl+3]([O-])([O-])[O-]
inactive: [1] 20.5 µM | [2] > 100 µM | [3] > 100 µM | [4] 96.2 µM | [5] 29.6 µM | [6] > 100 µM | [7] > 100 µM | [8] > 100 µM | [9] 41.1 µM | [10] > 100 µM | [11] 20.4 µM | [12] 38.8 µM | [14] 33.7 µM

CC/C=C\C/C=C\C1CC(=O)NCCCNCCCCN1 (centres undefined)
inactive: [1] > 100 µM | [2] > 100 µM | [3] > 100 µM | [4] > 100 µM | [5] > 100 µM | [6] > 100 µM | [7] > 100 µM | [10] > 100 µM | [11] > 100 µM | [12] > 100 µM | [13] > 100 µM | [14] 68.9 µM

Cc1ccc(NC(=O)CCCC(=O)CC(=O)c2ccc(Br)cc2)cc1
inactive: [1] > 100 µM | [2] > 100 µM | [3] > 100 µM | [4] > 100 µM | [5] > 100 µM | [6] > 100 µM | [7] > 100 µM | [8] > 100 µM | [9] > 100 µM | [10] > 100 µM | [12] > 100 µM | [13] > 100 µM | [14] > 100 µM

CC(=O)Nc1ccc(S(=O)(=O)N/N=C(\C)CN2C(=O)c3ccccc3C2=O)cc1
inactive: [1] > 100 µM | [2] > 100 µM | [3] > 100 µM | [4] > 100 µM | [5] > 100 µM | [6] > 100 µM | [7] > 100 µM | [8] > 100 µM | [9] > 100 µM | [10] > 100 µM | [11] > 100 µM | [12] > 100 µM | [14] > 100 µM

NC(=O)CCC(NC(=O)C(F)(F)F)C(=O)O (centres undefined)
inactive: [1] > 100 µM | [2] > 100 µM | [3] > 100 µM | [4] > 100 µM | [5] > 100 µM | [6] > 100 µM | [7] > 100 µM | [8] > 100 µM | [9] > 100 µM | [10] > 100 µM | [12] > 100 µM | [13] > 100 µM | [14] > 100 µM

O=C1/C(=C/c2ccc(Cl)cc2)COc2ccc(Br)cc21
inactive: [1] > 100 µM | [2] > 100 µM | [3] > 100 µM | [4] > 100 µM | [5] > 100 µM | [6] > 100 µM | [7] > 100 µM | [8] > 100 µM | [10] > 100 µM | [11] > 100 µM | [12] > 100 µM | [13] > 100 µM | [14] > 100 µM

c1cnc2c(c1)-n1cccc1C1(CCSCC1)NN2
inactive: [1] > 100 µM | [2] > 100 µM | [3] 83.4 µM | [6] > 100 µM | [7] > 100 µM | [10] > 100 µM | [11] 39.6 µM | [12] > 100 µM | [13] > 100 µM | [14] > 100 µM
